As a reminder, the inhibition is the drop in the measured response relative to a control, in per cent. As usually defined, the bioavailability is dose-corrected exposure relative to a reference, in per cent. A high value points to good availability.

The record followed here is ChEMBL document CHEMBL4052759, “Discovery of DS79182026: A potent orally active hepcidin production inhibitor” (Bioorg Med Chem Lett, 2017).

The target of data set [1] is Calcium/calmodulin-dependent protein kinase type II subunit alpha (Homo sapiens) (UniProt Q9UQM7). Description: Inhibition of CaMK2a (unknown origin) at 0.49 uM relative to control.
The target in data set [2] is Serine/threonine-protein kinase Nek2 (Homo sapiens) (UniProt P51955). Put plainly: Inhibition of NEK2 (unknown origin) at 0.49 uM relative to control.
Data set [3] has as its target Serine/threonine-protein kinase 10 (Homo sapiens) (UniProt O94804). Description: Inhibition of LOK (unknown origin) at 0.49 uM relative to control.
Data set [4] deals with Homeodomain-interacting protein kinase 1 (Homo sapiens) (UniProt Q86Z02). Put plainly: Inhibition of HIPK1 (unknown origin) at 0.49 uM relative to control.
Data set [5] has as its target Discoidin domain-containing receptor 2 (Homo sapiens) (UniProt Q16832). Put plainly: Inhibition of DDR2 (unknown origin) at 0.49 uM relative to control.
Data set [6] has as its target Vascular endothelial growth factor receptor 3 (Homo sapiens) (UniProt P35916). Put plainly: Inhibition of FLT4 (unknown origin) at 0.49 uM relative to control.
The target in data set [7] is MAP/microtubule affinity-regulating kinase 3 (Homo sapiens) (UniProt P27448). Description: Inhibition of c-TAK1 (unknown origin) at 0.49 uM relative to control.
The target in data set [8] is Mitogen-activated protein kinase 13 (Homo sapiens) (UniProt O15264). Description: Inhibition of p38-delta (unknown origin) at 0.49 uM relative to control.
The target of data set [9] is Glycogen synthase kinase-3 beta (Homo sapiens) (UniProt P49841). Put plainly: Inhibition of GSK3b (unknown origin) at 0.49 uM relative to control.
In data set [10] the target is Mitogen-activated protein kinase 1 (Homo sapiens) (UniProt P28482). Description: Inhibition of Erk2 (unknown origin) at 0.078 uM relative to control.
In data set [11] the target is Serine/threonine-protein kinase pim-2 (Homo sapiens) (UniProt Q9P1W9). Description: Inhibition of PIM2 (unknown origin) at 0.078 uM relative to control.
Data set [12] addresses RAC-alpha serine/threonine-protein kinase (Homo sapiens) (UniProt P31749). Put plainly: Inhibition of AKT1 (unknown origin) at 0.078 uM relative to control.
Data set [13] in a line: Oral bioavailability in C57BL/6J mouse at 30 mg/kg by LC-MS/MS analysis. It counts as ADME, organism-based. The note with it: in vivo.
Data set [14] has as its target Tyrosine-protein kinase Lck (Homo sapiens) (UniProt P06239). Description: Inhibition of LCK (unknown origin) at 0.45 uM relative to control.
Data set [15] deals with Glycogen synthase kinase-3 beta (Homo sapiens) (UniProt P49841). Description: Inhibition of GSK3b (unknown origin) at 0.45 uM relative to control.
Data set [16] concerns the target STE20-like serine/threonine-protein kinase (Homo sapiens) (UniProt Q9H2G2). Put plainly: Inhibition of SLK (unknown origin) at 0.45 uM relative to control.
The target of data set [17] is Homeodomain-interacting protein kinase 3 (Homo sapiens) (UniProt Q9H422). Put plainly: Inhibition of HIPK3 (unknown origin) at 0.45 uM relative to control.
Data set [18] addresses Cyclin-dependent kinase 5/CDK5 activator 1 (Homo sapiens) (UniProt Q00535+Q15078). Description: Inhibition of CDK5/p25 (unknown origin) at 0.45 uM relative to control. It counts as protein-complex assay.
Data set [19] deals with Protein kinase C theta type (Homo sapiens) (UniProt Q04759). Description: Inhibition of PKC-theta (unknown origin) at 0.45 uM relative to control.
The target of data set [20] is Epidermal growth factor receptor (Homo sapiens) (UniProt P00533). Description: Inhibition of EGFR (unknown origin) at 0.45 uM relative to control.
Data set [21] concerns the target Serine/threonine-protein kinase Nek1 (Homo sapiens) (UniProt Q96PY6). Put plainly: Inhibition of NEK1 (unknown origin) at 0.45 uM relative to control.
The target in data set [22] is Fibroblast growth factor receptor 4 (Homo sapiens) (UniProt P22455). Put plainly: Inhibition of FGFR4 (unknown origin) at 0.45 uM relative to control.
The next data set is filed under the species Homo sapiens. Put plainly: Inhibition of p70S6K (unknown origin) at 0.45 uM relative to control.
The target of data set [23] is T1, cGMP-dependent protein kinase 1 (Homo sapiens) (UniProt Q13976).
T1 sequence (whole entry): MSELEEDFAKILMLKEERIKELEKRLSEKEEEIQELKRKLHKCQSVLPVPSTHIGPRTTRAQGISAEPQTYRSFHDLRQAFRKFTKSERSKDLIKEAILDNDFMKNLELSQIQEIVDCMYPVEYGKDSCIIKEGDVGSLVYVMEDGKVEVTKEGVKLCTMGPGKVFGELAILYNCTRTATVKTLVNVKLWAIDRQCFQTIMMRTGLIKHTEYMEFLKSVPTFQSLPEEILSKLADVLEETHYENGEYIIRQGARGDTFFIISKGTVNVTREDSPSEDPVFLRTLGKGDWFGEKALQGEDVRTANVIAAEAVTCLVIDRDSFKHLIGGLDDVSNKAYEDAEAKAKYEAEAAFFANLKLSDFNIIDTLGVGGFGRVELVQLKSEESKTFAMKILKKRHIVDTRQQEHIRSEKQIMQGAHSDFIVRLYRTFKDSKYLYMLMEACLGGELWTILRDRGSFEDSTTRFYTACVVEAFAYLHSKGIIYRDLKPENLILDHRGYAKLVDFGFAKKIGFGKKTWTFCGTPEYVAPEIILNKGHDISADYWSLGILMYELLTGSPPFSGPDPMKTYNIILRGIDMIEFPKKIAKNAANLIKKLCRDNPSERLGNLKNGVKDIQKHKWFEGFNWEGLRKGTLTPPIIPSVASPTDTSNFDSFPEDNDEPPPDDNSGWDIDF
Description: Inhibition of PKG-alpha (unknown origin) at 0.45 uM relative to control.

For data set [24], the target named is Tyrosine-protein kinase Yes (Homo sapiens) (UniProt P07947). Put plainly: Inhibition of Yes (unknown origin) at 0.45 uM relative to control.
Data set [25] addresses Homeodomain-interacting protein kinase 4 (Homo sapiens) (UniProt Q8NE63). Put plainly: Inhibition of HIPK4 (unknown origin) at 0.45 uM relative to control.
Data set [26] addresses Tyrosine-protein kinase BTK (Homo sapiens) (UniProt Q06187). Description: Inhibition of BTK (unknown origin) at 0.45 uM relative to control.

Glycogen synthase kinase-3 beta (Homo sapiens), sequence (P49841 whole entry, looked up): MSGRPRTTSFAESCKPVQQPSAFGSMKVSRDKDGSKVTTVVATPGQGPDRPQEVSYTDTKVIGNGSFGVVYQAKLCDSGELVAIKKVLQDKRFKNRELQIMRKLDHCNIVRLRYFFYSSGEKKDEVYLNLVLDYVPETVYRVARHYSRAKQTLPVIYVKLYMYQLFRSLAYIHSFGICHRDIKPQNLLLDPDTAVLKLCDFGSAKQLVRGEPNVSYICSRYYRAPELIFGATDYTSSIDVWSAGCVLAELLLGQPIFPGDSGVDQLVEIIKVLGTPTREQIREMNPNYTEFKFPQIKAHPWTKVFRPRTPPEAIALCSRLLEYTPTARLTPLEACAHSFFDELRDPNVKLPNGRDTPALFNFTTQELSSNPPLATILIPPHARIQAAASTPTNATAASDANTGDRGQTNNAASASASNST
Serine/threonine-protein kinase Nek1 (Homo sapiens), sequence (Q96PY6 whole entry): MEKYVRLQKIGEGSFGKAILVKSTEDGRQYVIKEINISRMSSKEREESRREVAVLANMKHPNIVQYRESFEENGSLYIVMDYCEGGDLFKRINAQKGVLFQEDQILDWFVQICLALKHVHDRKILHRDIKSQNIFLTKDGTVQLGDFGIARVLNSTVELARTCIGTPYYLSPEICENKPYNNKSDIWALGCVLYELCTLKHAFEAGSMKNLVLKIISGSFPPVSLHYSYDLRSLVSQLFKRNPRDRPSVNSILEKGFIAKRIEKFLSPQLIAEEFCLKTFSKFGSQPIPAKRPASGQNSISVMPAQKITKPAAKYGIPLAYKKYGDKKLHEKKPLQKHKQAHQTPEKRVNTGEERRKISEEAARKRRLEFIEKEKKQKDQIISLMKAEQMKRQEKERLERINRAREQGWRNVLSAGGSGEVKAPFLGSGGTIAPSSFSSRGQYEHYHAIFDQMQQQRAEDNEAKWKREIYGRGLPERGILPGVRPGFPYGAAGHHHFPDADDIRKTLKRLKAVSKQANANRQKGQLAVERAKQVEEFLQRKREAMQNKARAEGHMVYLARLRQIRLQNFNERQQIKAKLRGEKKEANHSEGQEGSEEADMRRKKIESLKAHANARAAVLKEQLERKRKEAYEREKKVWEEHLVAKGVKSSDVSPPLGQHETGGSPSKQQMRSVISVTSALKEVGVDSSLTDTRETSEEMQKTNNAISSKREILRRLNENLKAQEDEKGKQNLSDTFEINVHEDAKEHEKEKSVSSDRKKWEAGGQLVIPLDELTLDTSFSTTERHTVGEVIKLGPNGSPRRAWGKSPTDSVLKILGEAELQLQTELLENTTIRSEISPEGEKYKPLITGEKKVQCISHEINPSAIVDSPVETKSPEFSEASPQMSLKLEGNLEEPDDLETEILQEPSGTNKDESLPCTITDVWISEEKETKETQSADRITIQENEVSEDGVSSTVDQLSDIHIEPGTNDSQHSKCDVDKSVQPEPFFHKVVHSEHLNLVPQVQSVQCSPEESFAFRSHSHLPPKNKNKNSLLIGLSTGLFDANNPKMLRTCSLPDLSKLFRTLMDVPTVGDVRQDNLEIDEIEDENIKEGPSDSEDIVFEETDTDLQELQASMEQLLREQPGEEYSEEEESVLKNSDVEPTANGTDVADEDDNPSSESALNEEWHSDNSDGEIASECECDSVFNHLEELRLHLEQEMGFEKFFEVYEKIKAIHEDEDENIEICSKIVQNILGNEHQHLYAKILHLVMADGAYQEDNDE
Tyrosine-protein kinase BTK (Homo sapiens), sequence (Q06187 whole entry): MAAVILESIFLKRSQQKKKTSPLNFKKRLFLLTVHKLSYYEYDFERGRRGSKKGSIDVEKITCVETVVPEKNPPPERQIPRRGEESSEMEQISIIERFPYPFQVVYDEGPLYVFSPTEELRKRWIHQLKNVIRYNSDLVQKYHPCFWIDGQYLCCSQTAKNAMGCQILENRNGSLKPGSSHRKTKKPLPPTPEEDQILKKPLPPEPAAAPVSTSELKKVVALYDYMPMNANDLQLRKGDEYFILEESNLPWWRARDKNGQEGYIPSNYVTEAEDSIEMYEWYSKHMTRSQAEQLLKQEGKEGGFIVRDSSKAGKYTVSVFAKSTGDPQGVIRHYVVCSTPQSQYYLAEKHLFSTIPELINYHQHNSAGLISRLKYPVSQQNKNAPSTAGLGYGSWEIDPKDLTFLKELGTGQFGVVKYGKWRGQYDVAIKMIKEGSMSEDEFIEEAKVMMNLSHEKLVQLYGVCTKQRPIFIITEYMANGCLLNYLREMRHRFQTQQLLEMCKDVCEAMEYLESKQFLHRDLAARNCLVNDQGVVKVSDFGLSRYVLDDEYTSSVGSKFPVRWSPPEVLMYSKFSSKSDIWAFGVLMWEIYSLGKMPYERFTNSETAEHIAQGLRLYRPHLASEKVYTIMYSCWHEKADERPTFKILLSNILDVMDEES
Serine/threonine-protein kinase pim-2 (Homo sapiens), sequence (Q9P1W9 whole entry, looked up): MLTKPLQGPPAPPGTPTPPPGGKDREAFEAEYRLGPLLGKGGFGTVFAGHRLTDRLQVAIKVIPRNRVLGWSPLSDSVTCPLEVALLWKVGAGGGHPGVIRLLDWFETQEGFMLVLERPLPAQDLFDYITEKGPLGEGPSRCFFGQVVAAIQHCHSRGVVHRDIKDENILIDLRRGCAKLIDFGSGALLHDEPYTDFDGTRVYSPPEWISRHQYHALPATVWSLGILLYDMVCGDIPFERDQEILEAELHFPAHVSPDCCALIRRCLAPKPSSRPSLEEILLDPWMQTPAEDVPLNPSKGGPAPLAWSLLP
Homeodomain-interacting protein kinase 3 (Homo sapiens), sequence (Q9H422 whole entry, looked up): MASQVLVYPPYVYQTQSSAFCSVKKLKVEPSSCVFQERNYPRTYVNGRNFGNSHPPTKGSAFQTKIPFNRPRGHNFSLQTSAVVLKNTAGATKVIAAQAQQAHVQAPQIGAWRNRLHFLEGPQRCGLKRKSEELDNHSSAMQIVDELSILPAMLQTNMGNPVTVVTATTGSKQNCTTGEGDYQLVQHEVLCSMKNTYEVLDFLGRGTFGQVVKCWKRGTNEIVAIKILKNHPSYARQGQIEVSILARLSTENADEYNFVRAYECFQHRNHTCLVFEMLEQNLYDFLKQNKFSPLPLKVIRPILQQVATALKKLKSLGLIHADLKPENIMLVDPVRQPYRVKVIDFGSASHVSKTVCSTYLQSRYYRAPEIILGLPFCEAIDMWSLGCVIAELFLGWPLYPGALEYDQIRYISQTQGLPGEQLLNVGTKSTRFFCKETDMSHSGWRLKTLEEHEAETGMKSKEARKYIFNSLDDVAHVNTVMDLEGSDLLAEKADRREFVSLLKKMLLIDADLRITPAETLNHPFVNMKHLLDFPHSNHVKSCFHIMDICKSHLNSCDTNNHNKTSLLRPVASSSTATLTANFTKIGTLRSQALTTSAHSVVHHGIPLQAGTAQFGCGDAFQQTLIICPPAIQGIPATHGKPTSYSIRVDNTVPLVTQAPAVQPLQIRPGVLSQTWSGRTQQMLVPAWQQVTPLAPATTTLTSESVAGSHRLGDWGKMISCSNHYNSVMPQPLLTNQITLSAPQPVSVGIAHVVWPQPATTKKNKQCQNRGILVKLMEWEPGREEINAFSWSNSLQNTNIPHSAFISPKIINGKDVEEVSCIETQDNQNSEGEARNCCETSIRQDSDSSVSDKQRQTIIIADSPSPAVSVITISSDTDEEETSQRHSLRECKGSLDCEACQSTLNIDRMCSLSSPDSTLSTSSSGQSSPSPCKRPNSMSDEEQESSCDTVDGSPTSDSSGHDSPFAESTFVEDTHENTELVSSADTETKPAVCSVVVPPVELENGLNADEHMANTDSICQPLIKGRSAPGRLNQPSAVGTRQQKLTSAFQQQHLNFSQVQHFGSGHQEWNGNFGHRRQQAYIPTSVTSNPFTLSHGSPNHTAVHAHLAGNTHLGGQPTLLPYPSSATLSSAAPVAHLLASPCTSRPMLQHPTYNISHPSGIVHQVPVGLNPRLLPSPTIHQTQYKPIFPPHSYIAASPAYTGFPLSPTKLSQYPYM
RAC-alpha serine/threonine-protein kinase (Homo sapiens), sequence (P31749 whole entry): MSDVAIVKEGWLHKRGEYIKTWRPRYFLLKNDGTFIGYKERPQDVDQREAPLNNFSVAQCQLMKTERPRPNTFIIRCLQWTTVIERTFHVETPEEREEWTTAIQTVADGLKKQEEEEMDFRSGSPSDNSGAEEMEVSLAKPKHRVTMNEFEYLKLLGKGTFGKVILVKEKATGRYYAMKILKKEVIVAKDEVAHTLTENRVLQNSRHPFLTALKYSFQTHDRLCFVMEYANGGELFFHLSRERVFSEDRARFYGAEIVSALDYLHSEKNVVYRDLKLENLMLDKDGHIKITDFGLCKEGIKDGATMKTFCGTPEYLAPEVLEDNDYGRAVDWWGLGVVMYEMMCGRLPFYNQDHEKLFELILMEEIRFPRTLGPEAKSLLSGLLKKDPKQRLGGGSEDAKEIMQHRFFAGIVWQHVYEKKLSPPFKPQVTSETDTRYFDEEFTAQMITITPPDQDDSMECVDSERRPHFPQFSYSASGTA
Serine/threonine-protein kinase Nek2 (Homo sapiens), sequence (P51955 whole entry): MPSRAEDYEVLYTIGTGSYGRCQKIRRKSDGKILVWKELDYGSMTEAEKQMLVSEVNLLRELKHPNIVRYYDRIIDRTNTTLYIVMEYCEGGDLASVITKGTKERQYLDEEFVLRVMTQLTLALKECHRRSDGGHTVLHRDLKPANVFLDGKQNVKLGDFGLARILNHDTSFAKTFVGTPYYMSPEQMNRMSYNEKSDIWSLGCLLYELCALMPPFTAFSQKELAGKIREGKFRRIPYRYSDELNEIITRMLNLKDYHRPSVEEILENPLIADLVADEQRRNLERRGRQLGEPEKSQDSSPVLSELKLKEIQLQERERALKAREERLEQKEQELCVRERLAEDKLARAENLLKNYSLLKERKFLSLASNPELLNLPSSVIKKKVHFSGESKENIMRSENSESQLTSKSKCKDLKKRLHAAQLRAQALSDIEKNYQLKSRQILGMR

Regarding `Cc1[nH]nc(C2CC2)c1-c1ccc2c(NC(=O)C3CC3)noc2c1`, the inhibition in [1] was 1.3%; in data set [2] it was 10.7%; in data set [3], 9.7%; in [4], 1.7%; in data set [5] it was 2%; in [6], -2.7%. In addition, the figures for the inhibition in data set [7], in data set [8] and in data set [9] were 6%, 4.3% and 6.7%, respectively.
Take `COC(=O)Nc1noc2cc(-c3c(-c4ccccn4)n[nH]c3C)ccc12`: the inhibition was -0.7% in data set [10], 1.7% in data set [11] and -1% in [12]. This compound displayed a bioavailability in [13] of 100%.
In the case of `Cc1n[nH]c(C)c1-c1ccc2c(NC(=O)c3ccc(N4CCN(C)CC4)cc3)n[nH]c2c1`, the inhibition is 32.3% in [14]; 1.3% in data set [15]; 62.3% in [16]; 2.7% in data set [17]; 0.3% in [18]; 3% in [19]. In addition, the inhibition in data set [20] was -6%; in data set [21], 3.7%; in data set [22], 0.7%; in the data set filed under Homo sapiens it was 1.3%; in [23], -1.7%; in data set [24], 49%. Moreover, the inhibition in data set [25] came to 1.3%; in data set [26], 5%.
